The results in this text go back to patent publication US20040127501A1, “Therapeutic agents useful for treating pain” (priority 2002, published 2004).

This test addresses T1, mGluR5 (Rattus norvegicus, UniProt P31424).
T1 construct: The procedure allows the expression of the mGluR5 receptor by astrocytes; endogenous in cells; host or cells: secondary astrocyte cultures from embryonic (E18) Sprague-Dawley cortex, EGF-treated
Briefly: mGluR5 calcium mobilization flux assay in primary astrocytes (Fluo-4, Fluorometric Imaging Plate reader). The following applies: astrocytes expressing mGluR5; calcium mobilization flux with glutamate (final 10 mM); mean of 5 experiments. The format is cell-based, rat (Sprague-Dawley). As for the experimental part: Cell cultures: Primary glial cultures were prepared from cortices of Sprague-Dawley 18 days old embryos. The cortices were dissected and then dissociated by trituration. The resulting cell homogenate was plated onto poly-D-lysine precoated T175 flasks (BIOCOAT, commercially available from Becton Dickinson and Company Inc. of Franklin Lakes, N.J.) in Dulbecco's Modified Eagle's Medium (“DMEM,” pH 7.4), buffered with 25 mM HEPES, and supplemented with 15% fetal calf serum (“FCS,” commercially available from Hyclone Laboratories Inc. of Omaha, Nebr.), and incubated at 37° C. and 5% CO2. After 24 hours, FCS supplementation was reduced to 10%. […]
Assay Protocol: After 3-5 days incubation with EGF, the astrocytes were washed with 127 mM NaCl, 5 mM KCl, 2 mM MgCl2, […] NaH2PO4, 2 mM CaCl2, 5 mM NaHCO3, 8 mM HEPES, 10 mM Glucose at pH 7.4 (“Assay Buffer”) and loaded with the dye Fluo-4 (commercially available from Molecular Probes Inc. of Eugene, Oreg.) using 0.1 mL of Assay Buffer containing Fluo-4 ([…]). […] The plates containing the astrocytes were then transferred to a Fluorometric Imaging Plate reader (commercially available from Molecular Devices Corporation of Sunnyvale, Calif.) for the assessment of calcium mobilization flux in the presence of glutamate and in the presence or absence of antagonist. […] In each experiment each data point was determined two times.
In general terms: Calcium flux is commonly read through the fluorescence of an indicator in the cells.

Molecules are shown by their SMILES.

By IC50 is commonly meant the concentration that gives 50% inhibition.

T1 sequence (P31424 21-1203): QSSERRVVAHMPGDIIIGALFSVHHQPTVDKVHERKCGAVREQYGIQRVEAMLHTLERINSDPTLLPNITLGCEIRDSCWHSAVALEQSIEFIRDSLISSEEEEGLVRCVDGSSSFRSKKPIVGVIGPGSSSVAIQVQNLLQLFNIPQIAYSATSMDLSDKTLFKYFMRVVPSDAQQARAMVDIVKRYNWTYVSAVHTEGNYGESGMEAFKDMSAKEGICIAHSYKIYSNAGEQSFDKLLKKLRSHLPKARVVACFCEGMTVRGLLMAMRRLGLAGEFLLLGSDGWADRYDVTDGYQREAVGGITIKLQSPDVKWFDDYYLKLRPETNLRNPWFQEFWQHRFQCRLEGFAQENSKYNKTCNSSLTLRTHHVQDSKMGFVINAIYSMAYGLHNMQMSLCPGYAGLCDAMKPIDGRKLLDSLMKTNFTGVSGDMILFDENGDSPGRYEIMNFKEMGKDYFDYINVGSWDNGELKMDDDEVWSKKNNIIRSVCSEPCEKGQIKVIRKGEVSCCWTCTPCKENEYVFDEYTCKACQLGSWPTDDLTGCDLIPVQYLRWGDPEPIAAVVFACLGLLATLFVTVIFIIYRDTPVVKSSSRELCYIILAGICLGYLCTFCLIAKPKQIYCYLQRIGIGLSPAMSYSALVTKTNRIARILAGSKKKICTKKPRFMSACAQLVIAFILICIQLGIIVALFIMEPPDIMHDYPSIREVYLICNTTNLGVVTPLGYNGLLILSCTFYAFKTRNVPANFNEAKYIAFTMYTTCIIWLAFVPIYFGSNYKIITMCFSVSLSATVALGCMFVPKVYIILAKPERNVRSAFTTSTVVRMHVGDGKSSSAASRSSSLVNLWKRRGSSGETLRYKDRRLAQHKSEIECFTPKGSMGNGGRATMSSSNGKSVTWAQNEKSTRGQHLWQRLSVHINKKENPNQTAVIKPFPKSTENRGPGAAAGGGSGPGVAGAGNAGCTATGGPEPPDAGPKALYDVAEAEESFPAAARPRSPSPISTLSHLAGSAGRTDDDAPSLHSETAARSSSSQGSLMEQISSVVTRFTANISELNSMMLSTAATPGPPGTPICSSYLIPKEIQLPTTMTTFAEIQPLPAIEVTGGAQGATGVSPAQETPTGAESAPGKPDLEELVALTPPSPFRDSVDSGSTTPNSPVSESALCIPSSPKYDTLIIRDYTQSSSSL

For the molecule `O=C(C#Cc1ccccc1)N1CCN(c2ncccn2)CC1` [Compound AAA(IIa)], the IC50 came out at 555 ± 137 nM.
